In PubChem BioAssay (NCI):
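Cells were grown in 96-well plates and exposed to each compound for 48 hours at five concentrations; endpoints were interpolated linearly between bracketing concentrations, or set to the highest concentration if not reached. GI50 marks 50% less growth. The concentration for full growth arrest is given as TGI.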

Experiments:
Experiment in all cases: NCI-60 cell line screen, 48 h
IGROV1 ovarian = system: IGROV1 ovarian
SR leukemia = system: SR leukemia
A549 NSCLC = system: A549 NSCLC
SK-OV-3 ovarian = system: SK-OV-3 ovarian
UACC-62 melanoma = system: UACC-62 melanoma
MCF7 breast = system: MCF7 breast
K-562 leukemia = system: K-562 leukemia
HL-60(TB) leukemia = system: HL-60(TB) leukemia
MOLT-4 leukemia = system: MOLT-4 leukemia
HCT-116 colon = system: HCT-116 colon
SK-MEL-2 melanoma = system: SK-MEL-2 melanoma
SF-539 CNS = system: SF-539 CNS
TK-10 renal = system: TK-10 renal
EKVX NSCLC = system: EKVX NSCLC
SNB-75 CNS = system: SNB-75 CNS
CAKI-1 renal = system: CAKI-1 renal
DU-145 prostate = system: DU-145 prostate
HOP-62 NSCLC = system: HOP-62 NSCLC
MDA-MB-231 breast = system: MDA-MB-231 breast
HT29 colon = system: HT29 colon
MALME-3M melanoma = system: MALME-3M melanoma
786-0 renal = system: 786-0 renal
PC-3 prostate = system: PC-3 prostate
SF-268 CNS = system: SF-268 CNS
BT-549 breast = system: BT-549 breast
COLO 205 colon = system: COLO 205 colon
NCI-H460 lung = system: NCI-H460 lung
OVCAR-8 ovarian = system: OVCAR-8 ovarian
MDA-MB-435 = system: MDA-MB-435
M14 melanoma = system: M14 melanoma
OVCAR-5 ovarian = system: OVCAR-5 ovarian
NCI-H226 lung = system: NCI-H226 lung
U251 CNS = system: U251 CNS
UO-31 renal = system: UO-31 renal
CCRF-CEM leukemia = system: CCRF-CEM leukemia
SNB-19 CNS = system: SNB-19 CNS
RPMI-8226 leukemia = system: RPMI-8226 leukemia
RXF 393 renal = system: RXF 393 renal
NCI/ADR-RES ovarian = system: NCI/ADR-RES ovarian
HS 578T breast = system: HS 578T breast
SF-295 CNS = system: SF-295 CNS
SK-MEL-5 melanoma = system: SK-MEL-5 melanoma
KM12 colon = system: KM12 colon
OVCAR-4 ovarian = system: OVCAR-4 ovarian
ACHN renal = system: ACHN renal
NCI-H522 lung = system: NCI-H522 lung
HCT-15 colon = system: HCT-15 colon
UACC-257 melanoma = system: UACC-257 melanoma
OVCAR-3 ovarian = system: OVCAR-3 ovarian
HOP-92 NSCLC = system: HOP-92 NSCLC
SW-620 colon = system: SW-620 colon
NCI-H23 lung = system: NCI-H23 lung
LOX IMVI melanoma = system: LOX IMVI melanoma
SN12C renal = system: SN12C renal
HCC-2998 colon = system: HCC-2998 colon
SK-MEL-28 melanoma = system: SK-MEL-28 melanoma

## C=C1C(O)C2C(=C(CCC3CC3)C13CC3)C(=O)C(C)(C)C2O (configuration not stated)
IGROV1 ovarian
  GI50: > 100 µM
  TGI: > 100 µM
SR leukemia
  GI50: 32.1 µM
  TGI: > 100 µM
A549 NSCLC
  GI50: > 100 µM
  TGI: > 100 µM
SK-OV-3 ovarian
  GI50: 30.1 µM
  TGI: > 100 µM
UACC-62 melanoma
  GI50: 87.4 µM
  TGI: > 100 µM
MCF7 breast
  GI50: 58.7 µM
  TGI: > 100 µM
K-562 leukemia
  GI50: 61.3 µM
  TGI: > 100 µM
HL-60(TB) leukemia
  GI50: > 100 µM
  TGI: > 100 µM
MOLT-4 leukemia
  GI50: 44.3 µM
  TGI: > 100 µM
HCT-116 colon
  GI50: > 100 µM
  TGI: > 100 µM
SK-MEL-2 melanoma
  GI50: > 100 µM
  TGI: > 100 µM
SF-539 CNS
  GI50: > 100 µM
  TGI: > 100 µM
TK-10 renal
  GI50: > 100 µM
  TGI: > 100 µM
EKVX NSCLC
  GI50: > 100 µM
  TGI: > 100 µM
SNB-75 CNS
  GI50: 23.2 µM
  TGI: > 100 µM
CAKI-1 renal
  GI50: 45.8 µM
  TGI: > 100 µM
DU-145 prostate
  GI50: > 100 µM
  TGI: > 100 µM
HOP-62 NSCLC
  GI50: > 100 µM
  TGI: > 100 µM
MDA-MB-231 breast
  GI50: 29.1 µM
  TGI: 99 µM
HT29 colon
  GI50: > 100 µM
  TGI: > 100 µM
MALME-3M melanoma
  GI50: > 100 µM
  TGI: > 100 µM
786-0 renal
  GI50: > 100 µM
  TGI: > 100 µM
PC-3 prostate
  GI50: 92.3 µM
  TGI: > 100 µM
SF-268 CNS
  GI50: > 100 µM
  TGI: > 100 µM
BT-549 breast
  GI50: > 100 µM
  TGI: > 100 µM
COLO 205 colon
  GI50: > 100 µM
  TGI: > 100 µM
NCI-H460 lung
  GI50: 80.9 µM
  TGI: > 100 µM
OVCAR-8 ovarian
  GI50: > 100 µM
  TGI: > 100 µM
MDA-MB-435
  GI50: > 100 µM
  TGI: > 100 µM
M14 melanoma
  GI50: > 100 µM
  TGI: > 100 µM
OVCAR-5 ovarian
  GI50: > 100 µM
  TGI: > 100 µM
NCI-H226 lung
  GI50: > 100 µM
  TGI: > 100 µM
U251 CNS
  GI50: 89.9 µM
  TGI: > 100 µM
UO-31 renal
  GI50: > 100 µM
  TGI: > 100 µM
CCRF-CEM leukemia
  GI50: > 100 µM
  TGI: > 100 µM
SNB-19 CNS
  GI50: > 100 µM
  TGI: > 100 µM
RPMI-8226 leukemia
  GI50: 43.7 µM
  TGI: > 100 µM
RXF 393 renal
  GI50: 32.9 µM
  TGI: > 100 µM
NCI/ADR-RES ovarian
  GI50: > 100 µM
  TGI: > 100 µM
HS 578T breast
  GI50: 25.7 µM
  TGI: > 100 µM
SF-295 CNS
  GI50: 55.8 µM
  TGI: > 100 µM
SK-MEL-5 melanoma
  GI50: 42.1 µM
  TGI: > 100 µM
KM12 colon
  GI50: > 100 µM
  TGI: > 100 µM
OVCAR-4 ovarian
  GI50: > 100 µM
  TGI: > 100 µM
ACHN renal
  GI50: > 100 µM
  TGI: > 100 µM
NCI-H522 lung
  GI50: 60.4 µM
  TGI: > 100 µM
HCT-15 colon
  GI50: > 100 µM
  TGI: > 100 µM
UACC-257 melanoma
  GI50: 71.3 µM
  TGI: > 100 µM
OVCAR-3 ovarian
  GI50: 59.5 µM
  TGI: > 100 µM
HOP-92 NSCLC
  GI50: 34.2 µM
  TGI: > 100 µM
SW-620 colon
  GI50: > 100 µM
  TGI: > 100 µM
NCI-H23 lung
  GI50: 76.2 µM
  TGI: > 100 µM
LOX IMVI melanoma
  GI50: > 100 µM
  TGI: > 100 µM
SN12C renal
  GI50: 71.3 µM
  TGI: > 100 µM
HCC-2998 colon
  GI50: > 100 µM
  TGI: > 100 µM
SK-MEL-28 melanoma
  GI50: 76.2 µM
  TGI: > 100 µM
